Experimental findings from US7834011B2, “Heterocyclylalkyl derivatives as novel inhibitors of histone deacetylase” (Janssen Pharmaceutica N.V., priority 2006, dated 2010) are described below.

Values after ≈ are worked out from the molar mass of the structure shown. Read-outs that look alike come from different tables or passages of the source.

Data set [1] concerns the target histone deacetylase (HeLa nuclear extracts). The data set can be described thus: In vitro assay for inhibition of histone deacetylase with fluorescent-labelled substrate (Fluor de Lys). In kind it is biochemical. The source says:
The in vitro assay for inhibition of histone deacetylase (see example C.1) measures the inhibition of HDAC enzymatic activity obtained with the compounds of formula (I).
The HDAC Fluorescent Activity Assay/Drug Discovery Kit of Biomol (cat. No: AK-500-0001) was used. The HDAC Fluorescent Activity Assay is based on the Fluor de Lys (Fluorogenic Histone deAcetylase Lysyl) substrate and developer combination. The Fluor de Lys substrate, comprises an acetylated lysine side chain. Deacetylation of the substrate sensitizes the substrate so that, in the second step, treatment with the Fluor de Lys developer produces a fluorophore.
HeLa nuclear extracts (supplier: Biomol) were incubated at 60 μg/ml with 75 μM of substrate. The Fluor de Lys substrate was added in a buffer containing 25 mM Tris, 137 mM NaCl, 2.7 mM KCl and 1 mM MgCl2.6H2O at pH 7.4. After 30 min, 1 volume of the developer was added. The fluorophore was excited with 355 nm light and the emitted light (450 nm) was be detected on a fluorometric plate reader.
For each experiment, controls (containing HeLa nuclear extract and buffer), a blank incubation (containing buffer but no HeLa nuclear extract) and samples (containing compound dissolved in DMSO and further diluted in buffer and HeLa nuclear extract) were run in parallel. In first instance, compounds were tested at a concentration of 10^−5M. […] All sample were tested 4 times. In each test the blank value was subtracted from both the control and the sample values. The control sample represented 100% of substrate deactylation. For each sample the fluorescence was expressed as a percentage of the mean value of the controls. […] Herein the effects of test compounds are expressed as pIC50 (the negative log value of the IC50-value) (see Table F-2).

The test system of data set [2] is A2780 ovarian carcinoma cells. The data set can be described thus: Antiproliferative activity on A2780 cells (MTT). Format: cell-based. As to conditions: Homo sapiens, 96 h, four days of incubation, read-out: Cellular activity pIC50 C.2 (converted). On the procedure:
Cellular activity of the compounds of formula (I) was determined on A2780 tumour cells using a colorimetric assay for cell toxicity or survival (Mosmann Tim, Journal of Immunological Methods 65: 55-63, 1983)(see example C.2).
All compounds tested were dissolved in DMSO and further dilutions were made in culture medium. Final DMSO concentrations never exceeded 0.1% (v/v) in cell proliferation assays. Controls contained A2780 cells and DMSO without compound and blanks contained DMSO but no cells. MTT was dissolved at 5 mg/ml in PBS. A glycine buffer comprised of 0.1 M glycine and 0.1 M NaCl buffered to pH 10.5 with NaOH (1 N) was prepared (all reagents were from Merck).
The human A2780 ovarian carcinoma cells (a kind gift from Dr. T. C. Hamilton [Fox Chase Cancer Centre, Pennsylvania, USA]) were cultured in RPMI 1640 medium supplemented with 2 mM L-glutamine, 50 μg/ml gentamicin and 10% fetal calf serum. Cells were routinely kept as monolayer cultures at 37° C. in a humidified 5% CO2 atmosphere. Cells were passaged once a week using a trypsin/EDTA solution at a split ratio of 1:40. All media and supplements were obtained from Life Technologies. Cells were free of mycoplasma contamination as determined using the Gen-Probe Mycoplasma Tissue Culture kit (supplier: BioMérieux).
Cells were seeded in NUNC™ 96-well culture plates (Supplier: Life Technologies) and allowed to adhere to the plastic overnight. Densities used for plating were 1500 cells per well in a total volume of 200 μl medium. After cell adhesion to the plates, medium was changed and drugs and/or solvents were added to a final volume of 200 μl. Following four days of incubation, medium was replaced by 200 μl fresh medium and cell density and viability was assessed using an MTT-based assay. To each well, 25 μl MTT solution was added and the cells were further incubated for 2 hours at 37° C. The medium was then carefully aspirated and the blue MTT-formazan product was solubilized by addition of 25 μl glycine buffer followed by 100 μl of DMSO. […] Within an experiment, the results for each experimental condition are the mean of 3 replicate wells. For initial screening purposes, compounds were tested at a single fixed concentration of 10^−6 M. For active compounds, the experiments were repeated to establish full concentration-response curves. For each experiment, controls (containing no drug) and a blank incubation (containing no cells or drugs) were run in parallel. The blank value was subtracted from all control and sample values. For each sample, the mean value for cell growth (in absorbance units) was expressed as a percentage of the mean value for cell growth of the control. […] Herein the effects of test compounds are expressed as pIC50 (the negative log value of the IC50-value)(see Table F-2).

A short description of data set [3]: Solubility at pH 2.3 (chemiluminescent nitrogen detector). In kind it is physicochemical. The conditions noted are these: pH 2.3, aqueous buffer; read-out: Solubility C.3.c. pH = 2.3. The source says:
In a third method the solubility of a compound at different pH's can be measured with the use of a Chemiluminescent Nitrogen Detector (see example C.3.c).
The solubility of a compound, at pH 2.3, can also be measured with the use of a chemiluminescent nitrogen detector (see Table F-2).

Another data set concerns p21 promoter. Description: p21 induction in vivo method C.6.c (reporter tumour fluorescence in nude mice). As to conditions: 20-40 mpk daily during 6 days, orally or intraveinally, ranked inactive, weaker, identical or better than R306465. As for the experimental part:
The last method is an in vivo method wherein mice are used for screening the pharmaceutical activity of a compound. The above described stably transformed tumour cells can be administered to mice in an amount sufficient to effect production of a tumour. After the tumour cells had sufficient time to form a tumour, a potentially active compound can be administered to the animals and the effect of said compound on the tumour cells is evaluated by measuring the expression of the reporter gene. Incubation with pharmaceutical active compounds will result in an increase of reporter gene expression compared to the control levels (see example C.6.c.)
A selected clone was injected subcutaneous (10^7 cells/200 μl) into the flank of nude mice and a calliper measurable tumour was obtained after 12 days. From day 12 on, animals were dosed, orally or intraveinally, daily during 6 days with solvent and 20-40 mpk compound (4-10 animals each). Tumours were evaluated for fluorescence by the in-house developed Automated Whole Body Imaging System (Fluorescent stereomicroscope type Olympus® SZX12 equipped with a GFP filter and coupled to a CCD camera type JAI® CV-M90 controlled by a software package based on the IMAQ Vision Software from National Instruments®). As reference, compound R306465 (WO03/76422) was used.

Assay in data set [4]: not given
The source holds these as a separate data set.

The nature of data set [5]: Kinetic solubility in aqueous media C.3.a (nephelometer). Format: physicochemical. The conditions noted are these: aqueous buffer, kinetic from dmso stock; phosphate citrate buffer pH 7.4, turbidity; read-out: Kinetic solubility score (C.3.a). On the procedure:
The solubility of a compound measures the ability of a compound to stay in solution. In a first method the ability of a compound to stay in aqueous solution upon dilution (see example C.3.a) is measured. DMSO-stock solutions are diluted with a single aqueous buffer solvent in 3 consecutive steps. For every dilution turbidity is measured with a nephelometer.
In the first dilution step, 10 μl of a concentrated stock-solution of the active compound, solubilized in DMSO (5 mM), was added to 100 μl phosphate citrate buffer pH 7.4 and mixed. In the second dilution step, an aliquot (20 μl) of the first dilution step was further dispensed in 100 μl phosphate citrate buffer pH 7.4 and mixed. Finally, in the third dilution step, a sample (20 μl) of the second dilution step was further diluted in 100 μl phosphate citrate buffer pH 7.4 and mixed. All dilutions were performed in 96-well plates. Immediately after the last dilution step the turbidity of the three consecutive dilution steps were measured with a nephelometer. Dilution was done in triplicate for each compound to exclude occasional errors. Based on the turbidity measurements a ranking is performed into 3 classes. Compounds with high solubility obtained a score of 3 and for this compounds the first dilution is clear. Compounds with medium solubility obtained a score of 2. […]

The nature of data set [6]: Metabolic stability with rat hepatocytes cell culture C.5.b. In kind it is in vitro ADME. As to conditions: male, Sprague Dowley, rat hepatocyte cell cultures, read-out: in vitro half-life. The source says: Metabolism of drugs means that a lipid-soluble xenobiotic or endobiotic compound is enzymatically transformed into (a) polar, water-soluble, and excretable metabolite(s). The major organ for drug metabolism is the liver. […] However, some metabolites may have enhanced activity or toxic effects. Thus drug metabolism may include both “detoxication” and “toxication” processes. One of the major enzyme systems that determine the organism's capability of dealing with drugs and chemicals is represented by the cytochrome P450 monooxygenases, which are NADPH dependent enzymes. Metabolic stability of compounds can be determined in vitro with the use of subcellular human tissue (see example C.5.a.). Here metabolic stability of the compounds is expressed as % of drug metabolised after 15 minutes incubation of these compounds with microsomes. Quantitation of the compounds was determined by LC-MS analysis. Metabolic stability of compounds can also be determined by calculating the half live of compounds in rat hepatocyte cells (see example C.5.b.).
Rat hepatocytes were isolated from male Sprague Dowley rats. The compounds were dissolved to a 5 mM stock solution in 100% DMSO and incubated at a final concentration of 5 μM for 0, 15, 30, 60 and 120 min with rat hepatocyte cell cultures (0.5 million viable cells/0.5 ml) using 24-well plates.
Samples were prepared for LC-MS by addition of two volumes of DMSO. The samples were thoroughly shaken and subsequently centrifuged at 900 g for 10 min (room temperature). All experiments were performed in triplicate. Of the resulting supernatant 50 μl was analysed by LC-MS.
For LC-MS, elution of samples was performed on a Hypersil BDS C18 column (50×4.6 mm, 5 μm, Thermohypersil, UK). […]
Total injection volume of samples was 50 μL. […] The mass spectrometer was operated in positive ion mode in SIM adjusted to the mass of M+H with a scan width of 1 Da for quantification purposes. […] The metabolic stability of compounds in rat hepatocytes was expressed as in vitro half-lives. […]

Consider `COc1cc(N)c(Cl)cc1C(=O)NC1CCN(CCCOc2ccc(F)cc2)CC1OC` (centres unmarked) [Cisapride], for which the “% metabolism” value (human, 15 min, 5 μM) is listed as 45%.
`Cn1nc(CNCC2CCN(c3ncc(C(=O)NO)cn3)CC2)c2ccccc21` [Compound 1]: the “Enzymatic activity pIC50 C.1” value in data set [1] worked out at 8.4. The IC50 in data set [2] is 20 nM. The solubility in data set [3] was 2500 µg/mL (≈ 6.32 mM). In addition, the “tumour fluorescence ranked against R306465” value in the data set on p21 promoter is recorded as “better than R306465”. The molecule also displayed a melting point in data set [4] of 197 °C.
Regarding `Cn1nnc2ccc(CNCC3CCN(c4ncc(C(=O)NO)cn4)CC3)cc21` [Compound 2], the “Enzymatic activity pIC50 C.1” value in data set [1] worked out at 8.1. Further, the IC50 in data set [2] is 251 nM. For the same molecule, the solubility in data set [3] came to 2100 µg/mL (≈ 5.3 mM). Moreover, in data set [5], the kinetic solubility was > 455 µM. The molecule further displayed a melting point in data set [4] of 206 °C.
For `O=C(NO)c1cnc(N2CCC(CNCc3n[nH]c4ccccc34)CC2)nc1` [Compound 22], in data set [1], the “Enzymatic activity pIC50 C.1” value worked out at 9.4. In addition, in data set [2], the IC50 is 79.4 nM. Besides, in data set [3], the solubility stood at 2200 µg/mL (≈ 5.77 mM). In addition, the half-life at 5 μM in data set [6] was 30 to 55 min.
Turning to `O=C(NO)c1cnc(N2CCN(S(=O)(=O)c3ccc4ccccc4c3)CC2)nc1` [Compound R306465, reference compound], in data set [6], the half-life at 5 μM stood at 8 min.
On to `CCCO` [propanol], for which, where the note is “15 min incubation with microsomes, compound 5 μM”, the “% metabolism” value was found to be 25%.
